Patent US20250108036A1, “COMPOSITIONS FOR REMOVING SENESCENT CELLS AND USES THEREOF” (LIFECEUTIX CO., LTD., priority 2021, published 2025)

What was measured:
p16, p21 = experiment: p16 and p21 mRNA qRT-PCR in doxorubicin-aged mice (Example 8-2); assay type: in vivo, C57BL6J mice; conditions: mice, doxorubicin 10 mg/kg i.p.; untreated = 1
Protocol: (§1) After adapting 8-week-old male C57BL6J mice (purchased from KRIBB Laboratory Animal Resource Center) to the experimental environment for 1 week, doxorubicin, an anticancer drug, was administered intraperitoneally at a concentration of 10 mg/kg, and mice that were induced to age for more than 10 days were assigned to an experimental group and a control group. LX-112 was mixed with 0.5% CMC-Na solution (purchased from Sigma) and administered orally at a concentration of 70 mg/kg daily for 21 days. The control group was administered only the solution in the same volume. After drug administration was completed, the method described in each Example below was performed.
The mouse was sacrificed in the same manner as in Example 7-2, RNA was extracted from the organ tissue of each region, and qRT-PCR was performed and analyzed using the synthesized cDNA. […] Table 37 calculates the mRNA amounts of p16 and p21 after aging was induced by treatment with the anticancer drug as 100% and compared them with the mRNA amounts of p16 and p21 after treatment with LX-112.

IL6 = experiment: serum IL6 ELISA in doxorubicin-aged mice (Example 8-5); assay type: in vivo, C57BL6J mice; conditions: mice, doxorubicin 10 mg/kg i.p., untreated = 1
Protocol: as §1
The amount of IL6, an aging-related inflammation secretory factor (SASP), was measured in serum collected from mice in the same manner as in Example 7-5 using an enzyme-linked immunosorbent assay (ELISA Kit, purchased from R&D Systems).

lipofuscin = lipofuscin staining of muscle of doxorubicin-aged mice (Example 8-4); assay type: in vivo, C57BL6J mice; conditions: stained area; mice, doxorubicin 10 mg/kg i.p.; untreated = 1
Protocol: as §1
Mice were sacrificed in the same manner as in Example 7-4, and tissue sections were prepared from muscle tissue. Lipofuscin, an aging-related degenerative marker was stained.

SAOS-2 [1] = experiment: CellTiter-Glo cell viability of senescent SAOS-2 cancer cells (Example 2-2); assay type: cell-based, human
Protocol: The standard for treating various cancers, including osteosarcoma, is repeated chemotherapy. Accordingly, aging was induced in SAOS-2 in the same manner as in Example 2-1, and then (i) treated again with doxorubicin (DOX→DOX) or (ii) treated with the LX-112 (5 μM) composition (DOX→LX-112).

SAOS-2 [2] = experiment: SA-β-gal staining of doxorubicin-treated SAOS-2 cells (Example 2-1); assay type: cell-based, human; conditions: doxorubicin-induced aging as in Example 1-1
foreskin cells = experiment: SA-β-gal staining of doxorubicin-treated foreskin cells (Example 1-1); assay type: cell-based, human; conditions: proportion of SA-β-gal stained cells; doxorubicin 250 nM 24 h + 7 days
Protocol: Specifically, foreskin cells (source: Chungnam National University College of Medicine) derived from humans were cultured in a designated medium (Iscove's Modified Dulbecco's Medium, source: ATCC; 10% FBS, source: GenDEPOT; 100 U/ml Penicillin & Streptomycin, source: Invitrogen), then treated with doxorubicin (DOX) dissolved in dimethyl sulfoxide (DMSO) at a concentration of 250 nM for 24 hours, and further cultured for 7 days to induce aging. […] To measure the proportion of aged cells, cells treated with doxorubicin and the control group were inoculated into a 24 well plate and stabilized for 24 hours. Then SA-β-gal, a marker related to aging, was stained using a kit (purchased from Cell Signaling Technology), and the proportion of senescent cells having the stained SA-β-gal was measured using an optical microscope.

SAOS-2 [3] = experiment: senescent SAOS-2 tumor size in mice (Example 2-3); assay type: in vivo, BALB/c nude mice; conditions: doxorubicin 10 mg/kg i.p.; after 10 days LX-112 100 mg/kg oral daily 21 days or repeated doxorubicin
Protocol: After 7-week-old male BALB/c nude mice (purchased from KRIBB Laboratory Animal Resource Center) were adapted to the experimental environment for one week, the mice were randomized into an experimental group and a control group. SAOS-2 (10^6 cells), a human osteosarcoma cancer cell line cultured in the same manner as Example 2-1, was mixed with PBS (purchased from Welgene) and then anesthetized using 2% isoflurane (purchased from Sigma). It was administered subcutaneously to mice. When the size of the tumor reached about […], doxorubicin was mixed at a concentration of 10 mg/kg in a 1:1 solution of distilled water and PBS (pH 7.2) and administered intraperitoneally to induce tumor aging. After 10 days, LX-112 mixed with 0.5% CMC-Na solution (purchased from Sigma) at a concentration of 100 mg/kg was orally administered daily for 21 days, and the size of the tumor was measured. The control group was repeatedly administered a solution mixed with doxorubicin, and then the size of the tumor was measured.

AST, ALT = experiment: serum AST and ALT in doxorubicin-aged mice (Example 8-8); assay type: in vivo, C57BL6J mice; conditions: mice, doxorubicin 10 mg/kg i.p., untreated = 1
Protocol: as §1
In the same manner as in Example 7-5, the amounts of AST (aspartate aminotransferase) and ALT (alanine transaminase) released into the blood during liver damage were measured by spectrophotometry in the serum collected from mice using a kit (purchased from Sigma) according to the method described in the manual. […] Table 50 calculates the amount of each factor after aging was induced by treatment with the anticancer drug as 100% and compared it with the amount of each factor after treatment with LX-112.

SA-β-gal = SA-β-gal staining of tissues of doxorubicin-aged mice (Example 8-3); assay type: in vivo, C57BL6J mice; conditions: stained area; mice, doxorubicin 10 mg/kg i.p.; untreated = 1
Protocol: as §1
Mice were sacrificed in the same method in described in Example 7-3, and tissue sections were prepared from the organ tissues of each region. SA-β-gal, an aging marker was stained. […] FIG. 3 is a photographic result of staining of adipose tissue.

[4] = fatigue/weakness tests and body weight in doxorubicin-aged mice (Example 8-7); assay type: in vivo, C57BL6J mice; conditions: mice
Protocol: as §1
In the same way as Example 7-7, in order to analyze fatigue and weakness that occur as a side effect due to treatment with anticancer drugs in mice, activity evaluation (open field test), endurance evaluation (wire hanging test), and muscle strength and grip strength test (grip strength test) were performed. […] In Table 47, the amount of each evaluation after aging was induced by treatment with the anticancer drug was calculated as 100% and compared it with the amount of each evaluation after treatment with LX-112.

IL6, CXCL1, CXCL10, IL1β [5] = experiment: SASP mRNA qRT-PCR in doxorubicin-aged mice (Example 8-6); assay type: in vivo, C57BL6J mice; conditions: doxorubicin 10 mg/kg i.p., untreated = 1
IL6, CXCL1, CXCL10, IL1β [6] = experiment: as above; assay type: in vivo, C57BL6J mice; conditions: mice, doxorubicin 10 mg/kg i.p.; untreated = 1
Protocol: as §1
Using cDNA synthesized in the same manner as Example 7-6, qRT-PCR was performed and analyzed for aging-related inflammation and fibrosis secretory factors (SASP) such as IL6, CXCL1, CXCL10, and IL1β. […] Table 45 calculates the mRNA amount of each factor after aging was induced by treatment with the anticancer drug as 100% and compared it with the mRNA amount of each factor after treatment with LX-112.

[7] = Table 46, doxorubicin 10 mg/kg i.p.

p16 mRNA (Fold) Kidney (p16, p21): 1.3 (±0.3) Fold
p16 mRNA (Fold) Liver (p16, p21): 2.6 (±0.8) Fold
p16 mRNA (Fold) eWAT (p16, p21): 3.2 (±1.2)^ Fold
p21 mRNA (Fold) Kidney (p16, p21): 2.6 (±2.1) Fold
p21 mRNA (Fold) Liver (p16, p21): 3.8 (±2.3) Fold
p21 mRNA (Fold) eWAT (p16, p21): 3.9 (±3) Fold
IL6 (Fold) (IL6): 11.7 (±0.5) Fold
Lipofuscin (Fold) Muscle (lipofuscin): 2.2 (±0.5) Fold
SA-β-gal (Fold) Kidney (SA-β-gal): 4.1 (±1.5) Fold
SA-β-gal (Fold) Liver (SA-β-gal): 3.7 (±0.9) Fold
SA-β-gal (Fold) Lung (SA-β-gal): 1.3 (±0.4) Fold
SA-β-gal (Fold) eWAT (SA-β-gal): 4.2 (±0.9) Fold
mRNA (Fold) CXCL1, Liver (IL6, CXCL1, CXCL10, IL1β [5]): 3 (±0.9) Fold
mRNA (Fold) CXCL1, eWAT (IL6, CXCL1, CXCL10, IL1β [5]): 1.3 (±0.4)^ Fold
mRNA (Fold) CXCL10, eWAT (IL6, CXCL1, CXCL10, IL1β [5]): 3 (±1.2) Fold
mRNA (Fold) IL1β, Liver (IL6, CXCL1, CXCL10, IL1β [5]): 1.6 (±0.3) Fold
mRNA (Fold) IL1β, eWAT (IL6, CXCL1, CXCL10, IL1β [5]): 1.6 (±0.2) Fold
mRNA (Fold) IL6, Liver (IL6, CXCL1, CXCL10, IL1β [5]): 1.8 (±0.3) Fold
mRNA (Fold) CXCL10, Liver (IL6, CXCL1, CXCL10, IL1β [6]): 2.6 (±0.9)^ Fold
mRNA (Fold) IL6, eWAT (IL6, CXCL1, CXCL10, IL1β [6]): 3.2 (±0.3) Fold
SMILES: COc1cccc2c1C(=O)c1c(O)c3c(c(O)c1C2=O)C[C@@](O)(C(=O)CO)C[C@@H]3O[C@H]1C[C@H](N)[C@H](O)[C@H](C)O1 [DOX, doxorubicin, reference compound]
Survival (%) (SAOS-2 [1]; DOX → DOX (senescent cells treated again with doxorubicin), 3 d): 72 (±7) %
Survival (%) (SAOS-2 [1]; DOX → DOX, 7 d): 55 (±5) %
SA-β-gal (%) (SAOS-2 [2]): 66 (±5) %
SA-β-gal (%) (foreskin cells): 90 (±7) %
Tumor Diameter (mm) (SAOS-2 [3]): 15.4 (±1.2) mm
ALT (Fold) (AST, ALT): 1.4 (±0.5) Fold
AST (Fold) (AST, ALT): 1.3 (±0.0) Fold
Grip Strength Test Strength (N) [4, 7]: 0.7 (±0.1) N
Open Field Test Time in Center (%) [4, 7]: 4.9 (±2.2) %
Wire Hanging Test Time (Sec) [4, 7]: 32 (±11) Sec
Mean Body Weight (g) ([4]; doxorubicin 10 mg/kg i.p. without or with LX-112 70 mg/kg oral daily 21 days): 21.3 (±2.6) g
